Literature values, collected in US10166183B2, “Pharmaceutical formulations” (AUSPEX PHARMACEUTICALS, INC., priority 2014, dated 2019).

Details: in human plasma; metabolites of orally administered tetrabenazine

Row | Compound | half-lives
1 | COc1cc2c(cc1OC)[C@H]1C[C@H](O)[C@H](CC(C)C)CN1CC2 [β-HTBZ, beta-dihydrotetrabenazine] | 5 h
2 | alpha-dihydrotetrabenazine [α-HTBZ] | 7 h
